According to patent US20080207617A1, “Quinoline Derivatives and Quinazoline Derivatives Inhibiting Autophosphrylation of Flt3 and Medicinal Compositions Containing the Same” (KIRIN BEER KABUSHIKI KAISHA, priority 2002, published 2008):
Where a name gives a salt, the structure may show the parent alone.

Columns and labels:
MV4-11 = assay: Cell growth inhibitory test MV4-11 (WST-1); format: cell-based, human; settings: MV4-11 cells, 3 days culture
Method: Pharmacological Test Example 2
Cell Growth Inhibitory Test
MV4-11 (ATCC number: CRL-9591) as human leukemia cells was seeded in an amount of 3×10^3 using a DMEM medium containing 10% fetal calf serum (purchased from GIBCO) in a 96-well flat bottom plate.
(§1) A solution of a test compound in dimethyl sulfoxide was added to each well and was cultured in a 5% carbon dioxide incubator for 3 days. Three days after the initiation of the culture, 10 μl of a WST-1 solution in Cell Counting Kit (purchased from Wako Pure Chemical Industries, Ltd.) was added to each well for a color reaction. After proper color development, the absorbance was measured with a microplate reader under conditions of measurement wavelength 450 nm and reference wavelength 650 nm. The growth ratio for each well was determined by presuming the absorbance without the addition of the medicament to be 100% growth ratio and the absorbance of the well without seeding of the cells to be 0% growth ratio. The concentration of the test compound was varied on several levels, the cell growth ratio for each case was determined, and the concentration of the test compound necessary for inhibiting 50% of cell growth ratio (IC50) was calculated.

MOLM13 [1] = assay: Cell growth inhibitory activity using MTT method (MOLM13); format: cell-based, human; settings: MOLM13 cells
Method: Pharmacological Test Example 3
Measurement of Cell Growth Inhibitory Activity Using MTT Method
Human leukemia cell line MOLM13 (subdivided from Hayashibara Biochemical Laboratories, Inc.) was cultured in an RPMI medium containing 10% fetal calf serum (purchased from Asahi Techno Glass Corporation) within a 5% carbon dioxide incubator until the cell density reached 50 to 90% of the maximum cell density. These cells were seeded into wells, containing an RPMI medium containing 10% fetal calf serum, in a 96-well flat bottom plate in an amount of […] per well. The amount of the solution of the medium in each well was brought to 100 μl, and a test compound was added thereto to 500 ng, 100 ng, 20 ng, and 4 ng per ml. After culture within an incubator for 72 hr, 10 μl of a 5 mg/ml MTT (3-(4,5-dimethylthiazol-2-yl)-2,5-diphenyl tetrazolium bromide) solution (purchased from SIGMA) was added to the medium, and a reaction was allowed to proceed for 4 hr. Thereafter, 100 μl of a 0.04 N hydrochloric acid-isopropanol solution was added to completely dissolve the resultant MTT formazan crystal. After the dissolution, absorbance at 550 nm was measured using 620 nm as a reference wavelength with a microplate reader (DIGISCAN) (It is regarded that, in the MTT method, the viable cell count is reflected, and linearity is observed in a cell count per well range of 5×10^5 to 2×10^2 cells). After 72 hr, the absorbance of only the medium free from cells was subtracted from the absorbance of the well without the addition of the test compound to determine a value which was presumed to be 100%. On the other hand, the absorbance with the addition of the compound was expressed in terms of % growth.

MOLM13 [2] = assay: Cell growth inhibitory activities on cultured human leukemia cells MOLM-13 (WST-1); format: cell-based; settings: 3 days culture
Method: Pharmacological Test Example 4
Cell Growth Inhibitory Activities on Cultured Human Leukemia Cells
as §1, with “Human leukemia cells MOLM13 (subdivided from Hayashibara Biochemical Laboratories, Inc.) were seeded in an amount of 3×10^3 using a DMEM medium containing 10% fetal calf serum (purchased from GIBCO) in a 96-well flat bottom plate. A solution” for “A solution”

Compound | IC50 (MV4-11; Homo sapiens, MV4-11, 72 h) | IC50 (MOLM13 [1]; Homo sapiens, MOLM-13, 72 h) | IC50 (MOLM13 [2]; Homo sapiens, MOLM-13, 72 h) | IC50 (MV4-11) | IC50 (MOLM13 [1]; 72 hr) | IC50 (MOLM13 [2])
COc1cc2nccc(Oc3ccc(NC(=O)NCCC(C)(C)C)cc3)c2cc1OCCN1CCOCC1 [Compound 68, 1-(3,3-Dimethyl-butyl)-3-{4-[7-methoxy-6-(2-morpholin-4-yl-ethoxy)-quinolin-4-yloxy]-phenyl}-urea] | < 1 nM | 13.3 nM | 1 nM |  |  | 
COc1cc2nccc(Oc3ccc(NC(=O)NCCC(C)(C)C)cc3OC)c2cc1OC [Compound 5, 1-[4-(6,7-Dimethoxy-quinolin-4-yloxy)-3-methoxy-phenyl]-3-(3,3-dimethyl-butyl)-urea] | 23 nM | 93.1 nM | 36 nM |  |  | 
COc1cc2nccc(Oc3ccc(NC(=O)NCCC4CCCCC4)cc3Cl)c2cc1OC [Compound 17, 1-[3-Chloro-4-(6,7-dimethoxy-quinolin-4-yloxy)-phenyl]-3-(2-cyclohexyl-ethyl)-urea] | 17 nM | 20.5 nM | 27 nM |  |  | 
CCN(CC)CCCOc1cc2nccc(Oc3ccc(NC(=O)NCCC(C)(C)C)c(Cl)c3)c2cc1OC [Compound 47, 1-{2-Chloro-4-[7-(3-diethylamino-propoxy)-6-methoxy-quinolin-4-yloxy]-phenyl}-3-(3,3-dimethyl-butyl)-urea] | 51 nM | 135 nM | 60 nM |  |  | 
COc1cc2nccc(Oc3ccc(NC(=O)NC4CCCCC4)cc3)c2cc1OC [Compound 26, 1-Cyclohexyl-3-[4-(6,7-dimethoxy-quinolin-4-yloxy)-phenyl]-urea] | 12 nM | 31.3 nM | 18 nM |  |  | 
COc1cc2c(Oc3ccc(NC(=O)NCCC(C)(C)C)c(F)c3)ccnc2cc1OCCN1CCOCC1 [Compound 67, 1-(3,3-Dimethyl-butyl)-3-{2-fluoro-4-[6-methoxy-7-(2-morpholin-4-yl-ethoxy)-quinolin-4-yloxy]-phenyl}-urea] |  |  |  | 2 nM | 16.1 nM | 4 nM
COc1cc2c(Oc3ccc(NC(=O)NCCC(C)(C)C)c(Cl)c3)ccnc2cc1OCCCN1CCCC1 [Compound 45, 1-{2-Chloro-4-[6-methoxy-7-(3-pyrrolidin-1-yl-propoxy)-quinolin-4-yloxy]-phenyl}-3-(3,3-dimethyl-butyl)-urea] | 118 nM | 255 nM | 140 nM |  |  | 
COc1cc2c(Oc3ccc(NC(=O)NC4CCCC(C)(C)C4)cc3F)ccnc2cc1OCCN1CCCCC1 (centres unmarked) [Compound 55, 1-(3,3-Dimethyl-cyclohexyl)-3-{3-fluoro-4-[6-methoxy-7-(2-piperidin-1-yl-ethoxy)-quinolin-4-yloxy]-phenyl}-urea] | 6 nM | 36.8 nM | 25 nM |  |  | 
COc1cc2nccc(Oc3ccc(NC(=O)NCCC(C)(C)C)c(Cl)c3)c2cc1OC [Compound 11, 1-[2-Chloro-4-(6,7-dimethoxy-quinolin-4-yloxy)-phenyl]-3-(3,3-dimethyl-butyl)-urea hydrochloride] | 300 nM |  | 416 nM |  |  | 
COc1cc2nccc(Oc3ccc(NC(=O)NCCCC4CCCCC4)cc3)c2cc1OC [Compound 33, 1-(3-Cyclohexyl-propyl)-3-[4-(6,7-dimethoxy-quinolin-4-yloxy)-phenyl]-urea] | 8 nM |  | 4 nM |  |  | 
COc1cc2nccc(Oc3ccc(NC(=O)NCCN(C)C)cc3)c2cc1OC [Compound 25, 1-[4-(6,7-Dimethoxy-quinolin-4-yloxy)-phenyl]-3-(2-dimethylamino-ethyl)-urea] | 66 nM |  | 258 nM |  |  | 
COc1cc2c(Oc3ccc(NC(=O)NCCC(C)(C)C)c(F)c3)ccnc2cc1OCCN1C(C)(C)CCCC1(C)C [Compound 61, 1-(3,3-Dimethyl-butyl)-3-(2-fluoro-4-{6-methoxy-7-[2-(2,2,6,6-tetramethyl-piperidin-1-yl)-ethoxy]-quinolin-4-yloxy}-phenyl)-urea] | 57 nM |  | 138 nM |  |  | 
